Entries after “also recorded” stand apart in the source; their conditions may differ.
Experiments:
[1] = system: blood glucose; test: Comparative insulin tolerance for insulin prodrug analogs in mice; assay type: in vivo; conditions: for comparative insulin potency in vivo: mice, administered without pre-incubation
Source text: The prodrug derivative MIU-29: [B^1(Y16,L17,Y25)29a: A^1(aF19-dLys(Ac),NLeu)] comprises a 4-amino-phenylalnine substitution at position A19 wherein a dipeptide dLys(Ac),NLeu have been covalently linked at the 4-amino position of the A19 residue. […]
(§1) Acylation of the insulin prodrug analogs was investigated to determine if retention times in vivo could be enhanced. […] (providing time for prodrug conversion) relative to the non-acylated prodrug (see FIG. 2).

[2] = In vitro activity of prodrugs relative to time incubated ex vivo; conditions: 30% ACN/PBS, pH 7.4, 37° C.
Procedure: FIG. 2 is a graph depicting the in vitro activity of the acylated prodrug MIU 42: B^1(Y16,L17,Y25)29a: A^1(dLys(rE-C14),Sar-aF19) (wherein an amino acid of the dipeptide prodrug element is acylated, linked at the gamma position “rE” of a glutamic acid linker) relative to time incubated ex vivo in 30% ACN/PBS at pH 7.4 and 37° C.
as §1

[3] = system: blood glucose; test: Insulin tolerance test in C57/Blk mice (MIU-30); assay type: in vivo; conditions: C57 black mice, through 8 hr
Source text: (generating “MIU-30c”). […] In FIG. 1B total blood glucose of MIU 30a and MIU 30c as compared to vehicle is reported as differential area under curve (AUC). […] These in vivo results are consistent with the in vitro analysis.

[4] = target: T1, insulin receptor (Homo sapiens, UniProt P06213); test: Insulin receptor phosphorylation assay, receptor transfected HEK293 cells; assay type: cell-based; set-up: expressed in transfected cells; host or cells: HEK293; conditions: incubated in 20% plasma
[5] = target: T1, insulin receptor; test: Insulin receptor competition binding assay (scintillation proximity); set-up: expressed in transfected cells; plasma membrane fragments; conditions: incubated in 20% plasma/PBS at 37° C.
[6] = Stability of Phe^B1-Insulin Prodrug

T1 sequence (P06213 28-758 limits assumed): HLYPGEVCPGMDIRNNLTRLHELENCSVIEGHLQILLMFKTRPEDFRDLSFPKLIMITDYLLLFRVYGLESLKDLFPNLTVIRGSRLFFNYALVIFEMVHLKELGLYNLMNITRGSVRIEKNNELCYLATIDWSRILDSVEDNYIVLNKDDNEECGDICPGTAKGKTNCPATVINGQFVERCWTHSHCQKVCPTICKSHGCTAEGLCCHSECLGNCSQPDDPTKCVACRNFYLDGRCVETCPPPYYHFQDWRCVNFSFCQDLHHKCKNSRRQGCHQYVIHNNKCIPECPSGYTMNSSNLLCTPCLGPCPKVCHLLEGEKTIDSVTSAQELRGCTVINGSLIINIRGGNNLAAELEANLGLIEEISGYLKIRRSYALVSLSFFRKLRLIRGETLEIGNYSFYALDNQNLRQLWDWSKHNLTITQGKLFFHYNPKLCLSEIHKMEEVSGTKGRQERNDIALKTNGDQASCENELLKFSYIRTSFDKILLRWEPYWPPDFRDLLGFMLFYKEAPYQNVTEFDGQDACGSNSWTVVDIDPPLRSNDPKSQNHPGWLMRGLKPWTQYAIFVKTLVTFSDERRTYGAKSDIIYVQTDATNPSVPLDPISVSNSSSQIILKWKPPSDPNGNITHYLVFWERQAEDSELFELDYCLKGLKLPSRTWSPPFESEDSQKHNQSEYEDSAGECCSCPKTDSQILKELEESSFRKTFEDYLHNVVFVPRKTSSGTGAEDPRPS
T1 sequence (P06213 763-1382 partner limits assumed): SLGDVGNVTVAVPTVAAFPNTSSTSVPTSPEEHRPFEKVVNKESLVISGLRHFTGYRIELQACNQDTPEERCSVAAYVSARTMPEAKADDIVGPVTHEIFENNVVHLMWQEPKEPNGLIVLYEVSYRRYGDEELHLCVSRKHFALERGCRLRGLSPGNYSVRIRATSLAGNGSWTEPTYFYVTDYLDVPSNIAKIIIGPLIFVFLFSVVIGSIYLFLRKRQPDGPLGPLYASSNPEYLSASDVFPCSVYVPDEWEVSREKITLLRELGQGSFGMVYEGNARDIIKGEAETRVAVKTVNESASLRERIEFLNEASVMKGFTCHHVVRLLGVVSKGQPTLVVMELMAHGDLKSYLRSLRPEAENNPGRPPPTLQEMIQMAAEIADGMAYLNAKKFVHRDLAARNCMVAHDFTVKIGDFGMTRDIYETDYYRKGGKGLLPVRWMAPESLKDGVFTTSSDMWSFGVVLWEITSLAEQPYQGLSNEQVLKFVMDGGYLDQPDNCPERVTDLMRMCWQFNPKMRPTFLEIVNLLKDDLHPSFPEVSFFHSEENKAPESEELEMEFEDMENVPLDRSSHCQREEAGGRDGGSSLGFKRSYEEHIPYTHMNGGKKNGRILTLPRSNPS

**Q.** With “[B^1(Y16,L17,Y25)29a: A^1(aF19-dLys(Ac),NLeu)] [MIU-29]” as the substance, how does the “ability to lower blood glucose compared to parent compound” value ([1]; normal mice, prodrug incubated 24 hours ex vivo before administration) read?
**A.** performed almost identically

**Q.** Which “comparative insulin potency in vivo” value [1] does the source give for “[B^1(Y16,L17,Y25)29a: A^1(dLys(rE-C14),Sar-aF19)] [MIU 42]” here?
**A.** not very potent relative to the non-prodrug parent compound

**Q.** What about the “in vitro activity relative to time incubated ex vivo” value [2] of the same substance?
**A.** increases with time incubated ex vivo; also recorded: activity is restored

**Q.** Which “comparative insulin potency in vivo” value [1] does the source give for “[B^1(H5,10 Y16,L17,Y25, K29-C14)28a: A^1(N18,21, aF19NH2)] [MIU-46]” here?
**A.** did not exhibit a desired in vivo potency or a basal profile

**Q.** For “B^1(Y16,L17,Y25)29a: A^1(dLys(Ac),Sar-aF19) [MIU30]”, which “blood glucose AUC vs vehicle (glucose lowering)” value ([3]; 90 nmol/kg) is on record?
**A.** little change in glucose

**Q.** And the “blood glucose AUC vs vehicle (glucose lowering)” value ([3]; 270 nmol/kg)?
**A.** glucose lowering

**Q.** And the “% Activity of Insulin (phosphorylation)” value ([4]; 1 hr)?
**A.** 23.0%

**Q.** And the “% Activity of Insulin (phosphorylation)” value ([4]; 3 hr)?
**A.** 26.8%

**Q.** What about the “% Activity of Insulin (phosphorylation)” value ([4]; 6 hr) of the same substance?
**A.** 32.5%

**Q.** What about the “% Activity of Insulin (phosphorylation)” value ([4]; 9 hr) of the same substance?
**A.** 41.1%

**Q.** And the “% Activity of Insulin (phosphorylation)” value ([4]; […])?
**A.** 43.2%

**Q.** And the “% Activity of Insulin (binding)” value ([5]; 0 hr)?
**A.** 34.44%

**Q.** What about the “% Activity of Insulin (binding)” value ([5]; 9 hr) of the same substance?
**A.** 100.09%

**Q.** What about the “% Activity of Insulin (binding)” value ([5]; 95 hr) of the same substance?
**A.** 115.42%

**Q.** Which Cleavage time [6] does the source give for isobutyl dLys(C18) [Peptide 10] here?
**A.** ~150 h

**Q.** Which Cleavage time [6] does the source give for Methyl dLys(C18) [Peptide 8] here?
**A.** > 240 h

Reference: patent US10385107B2 (INDIANA UNIVERSITY RESEARCH AND TECHNOLOGY CORPORATION, priority 2014, dated 2019)
